SMILES strings stand for the structures. Values joined by “and” are separate entries in the source; they are usually repeats but may differ in a detail not shown here. Equal values may be shown once. Toxic doses and inconclusive results are not listed.

The assay deals with L1210 leukemia ip in BDF1 mice, survival T/C. In words: NCI In Vivo Anticancer Drug Screen. Data for tumor model L1210 Leukemia (intraperitoneal) in B6D2F1 (BDF1) mice. The conditions noted are these: endpoint: mean survival time, higher = longer survival. A digest of the protocol:
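In this screen, tumor-bearing mice given compound are compared to those given vehicle, and their survival values are reported as a treated-to-control quotient.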

The mark [1] stands for this setting: dose: 25.0 mg/kg/injection, schedule: Q01DX009 (ip), vehicle: saline.
Where [2] appears, read: dose: 100.0 mg/kg/injection, schedule: Q04DX003 (ip), vehicle: saline.
Setting [3] is: dose: 100.0 mg/kg/injection, schedule: Q04DX003 (ip), vehicle: Klucel (hydroxypropylcellulose) (HPC).
Setting [4] is: dose: 200.0 mg/kg/injection, schedule: Q04DX003 (ip), vehicle: Klucel (hydroxypropylcellulose) (HPC).
[5] abbreviates: dose: 400.0 mg/kg/injection, schedule: Q04DX003 (ip), vehicle: Klucel (hydroxypropylcellulose) (HPC).
Setting [6] is: dose: 5.0 mg/kg/injection, schedule: Q01DX001 (ip), vehicle: saline.
[7] abbreviates: dose: 10.0 mg/kg/injection, schedule: Q01DX001 (ip), vehicle: saline.
Where [8] appears, read: dose: 100.0 mg/kg/injection, schedule: Q04DX003 (ip), vehicle: saline with Tween-80.
The mark [9] stands for this setting: dose: 200.0 mg/kg/injection, schedule: Q04DX003 (ip), vehicle: saline with Tween-80.
The mark [10] stands for this setting: dose: 400.0 mg/kg/injection, schedule: Q04DX003 (ip), vehicle: saline with Tween-80.
[11] abbreviates: dose: 100.0 mg/kg/injection, schedule: Q01DX001 (ip), vehicle: carboxymethylcellulose (CMC).
Where [12] appears, read: dose: 200.0 mg/kg/injection, schedule: Q01DX001 (ip), vehicle: carboxymethylcellulose (CMC).
Where [13] appears, read: dose: 400.0 mg/kg/injection, schedule: Q01DX001 (ip), vehicle: carboxymethylcellulose (CMC).
The mark [14] stands for this setting: dose: 100.0 mg/kg/injection, schedule: Q01DX001 (ip), vehicle: saline with Tween-80.
[15] abbreviates: dose: 200.0 mg/kg/injection, schedule: Q01DX001 (ip), vehicle: saline with Tween-80.
The mark [16] stands for this setting: dose: 400.0 mg/kg/injection, schedule: Q01DX001 (ip), vehicle: saline with Tween-80.
Where [17] appears, read: dose: 50.0 mg/kg/injection, schedule: Q01DX009 (ip), vehicle: saline.
The mark [18] stands for this setting: dose: 100.0 mg/kg/injection, schedule: Q01DX009 (ip), vehicle: saline.
The mark [19] stands for this setting: dose: 50.0 mg/kg/injection, schedule: Q01DX001 (ip), vehicle: saline.
Where [20] appears, read: dose: 100.0 mg/kg/injection, schedule: Q01DX001 (ip), vehicle: saline.
Setting [21] is: dose: 200.0 mg/kg/injection, schedule: Q01DX001 (ip), vehicle: saline.
Where [22] appears, read: dose: 400.0 mg/kg/injection, schedule: Q01DX001 (ip), vehicle: saline.

Take `CCCCCCCC(=O)N1C(=O)CCC1C(=O)NCCCCC(=O)OC` (stereo not drawn): the T/C runs as follows: (dose: 100.0 mg/kg/injection, schedule: Q04DX002 (ip), vehicle: saline with Tween-80) 103 % of control; (dose: 200.0 mg/kg/injection, schedule: Q04DX002 (ip), vehicle: saline with Tween-80) 116 % of control; (dose: 400.0 mg/kg/injection, schedule: Q04DX002 (ip), vehicle: saline with Tween-80) 90 % of control.
With `Oc1ccc(-c2ccc(O)c(O)c2)cc1O`, the T/C is, setting by setting: (dose: 75.0 mg/kg/injection, schedule: Q01DX001 (ip), vehicle: carboxymethylcellulose (CMC)) 100 % of control; (dose: 150.0 mg/kg/injection, schedule: Q01DX001 (ip), vehicle: carboxymethylcellulose (CMC)) 95 % of control.
Take `CCc1ncc(C)n1Cc1ccccc1`: the T/C reads like this: (dose: 6.25 mg/kg/injection, schedule: Q01DX009 (ip), vehicle: saline) 109 % of control; (dose: 12.5 mg/kg/injection, schedule: Q01DX009 (ip), vehicle: saline) 102 % of control; under setting [1], 102 % of control and 115 % of control.
Regarding `CC(C)(CO)NCc1ccc(Cl)c(Cl)c1`, the T/C by setting is: (dose: 100.0 mg/kg/injection, schedule: Q01DX009 (ip), vehicle: Klucel (hydroxypropylcellulose) (HPC)) 98 % of control; under setting [2], 106 % of control; (dose: 200.0 mg/kg/injection, schedule: Q01DX009 (ip), vehicle: Klucel (hydroxypropylcellulose) (HPC)) 102 % of control; (dose: 200.0 mg/kg/injection, schedule: Q04DX003 (ip), vehicle: saline) 97 % of control; (dose: 400.0 mg/kg/injection, schedule: Q04DX003 (ip), vehicle: saline) 97 % of control.
Take `Clc1ccc(-c2nc3ccccc3cc2N2CCOCC2)cc1`: the T/C by setting is: under setting [3], 108 % of control; under setting [4], 103 % of control; under setting [5], 100 % of control.
For the compound `CC1CCC(NC(=O)N(CCF)N=O)CC1` (stereo not drawn), the T/C is 115 % of control (dose: 8.0 mg/kg/injection, schedule: Q01DX001 (ip), vehicle: other); 433 % of control (dose: 26.0 mg/kg/injection, schedule: Q01DX001 (ip), vehicle: other); 500 % of control (dose: 40.0 mg/kg/injection, schedule: Q01DX001 (ip), vehicle: other); 437 % of control (dose: 60.0 mg/kg/injection, schedule: Q01DX001 (ip), vehicle: other).
Take `COc1cc2c(c(O)c1OC)c(=O)c1ccccc1n2C`: the T/C by setting is: (dose: 60.0 mg/kg/injection, schedule: Q01DX Z (ip), vehicle: carboxymethylcellulose (CMC)) 103 % of control; (dose: 120.0 mg/kg/injection, schedule: Q01DX Z (ip), vehicle: carboxymethylcellulose (CMC)) 102 % of control; (dose: 240.0 mg/kg/injection, schedule: Q01DX Z (ip), vehicle: carboxymethylcellulose (CMC)) 97 % of control.
Take `Nc1ccc(Nc2ccc(N)cc2)cc1`: the T/C under setting [6] is 101 % of control and the T/C under setting [7] is 113 % of control.
As to `CCN(CC)C(=O)C(Cc1ccc(OC)c(OC)c1)C(Cc1ccc(OC)c(OC)c1)C(=O)O` (stereo not drawn), the T/C by setting is: under setting [8], 114 % of control; under setting [9], 102 % of control; under setting [10], 105 % of control.
As to `CCN(CC)c1cccc(O)c1`, the T/C is 90 % of control under setting [8] and 95 % of control under setting [9].
Turning to `CSc1ncnc2c1ncn2C1CCCO1` (stereo not drawn), the T/C (dose: 37.5 mg/kg/injection, schedule: Q01DX Z (ip), vehicle: methylcellulose (MC)) was 101 % of control and the T/C (dose: 75.0 mg/kg/injection, schedule: Q01DX Z (ip), vehicle: methylcellulose (MC)) is 111 % of control.
In the case of `CN(C)C(=S)Oc1ccc(OC(=S)N(C)C)cc1`, the T/C was 100 % of control under setting [8], 95 % of control under setting [9] and 100 % of control under setting [10].
On to `NNC(=O)C(Oc1ccccc1Cl)c1ccccc1` (stereo not drawn), for which the T/C runs as follows: under setting [11], 105 % of control; under setting [12], 97 % of control; under setting [13], 105 % of control.
Regarding `Nc1ccnc(SCc2ccccc2)n1`, the T/C is 90 % of control under setting [14], 93 % of control under setting [15] and 93 % of control under setting [16].
Regarding `COc1cccc(CC2=NCCc3cc(OC)c(OC)cc32)c1`, the T/C is 103 % of control under setting [1], 101 % of control under setting [17], 97 % of control under setting [18] and 98 % of control under setting [2].
For the compound `CC(C)P(=S)(OCc1ccccc1)C(C)C`, the T/C runs as follows: under setting [14], 99 % of control; under setting [15], 98 % of control; under setting [16], 105 % of control.
On to `O=C1/C(=N/O)CCc2ccccc21`, for which the T/C under setting [17] was 102 % of control, the T/C under setting [11] is 103 % of control, the T/C under setting [18] was 103 % of control and the T/C under setting [12] was 97 % of control.
As to `Cc1cc(C)n(N=C2CCCCC2)c(=O)c1C#N`, the T/C reads like this: (dose: 100.0 mg/kg/injection, schedule: Q01DX001 (ip), vehicle: Klucel (hydroxypropylcellulose) (HPC)) 96 % of control; under setting [3], 100 % of control; (dose: 200.0 mg/kg/injection, schedule: Q01DX001 (ip), vehicle: Klucel (hydroxypropylcellulose) (HPC)) 105 % of control; under setting [4], 99 % of control; (dose: 400.0 mg/kg/injection, schedule: Q01DX001 (ip), vehicle: Klucel (hydroxypropylcellulose) (HPC)) 94 % of control; under setting [5], 89 % of control.
Turning to `O=C(c1ccccc1)C(c1ccccc1)C(C[N+](=O)[O-])c1ccccc1` (stereo not drawn), the T/C by setting is: (dose: 100.0 mg/kg/injection, schedule: Q01DX009 (ip), vehicle: saline with Tween-80) 88 % of control; (dose: 200.0 mg/kg/injection, schedule: Q01DX009 (ip), vehicle: saline with Tween-80) 90 % of control; (dose: 400.0 mg/kg/injection, schedule: Q01DX009 (ip), vehicle: saline with Tween-80) 96 % of control.
As to `COc1ccc(NP2(=O)OCC(C)([N+](=O)[O-])CO2)cc1` (stereo not drawn), the T/C reads like this: under setting [19], 98 % of control; under setting [20], 102 % of control; under setting [21], 98 % of control; under setting [22], 96 % of control.
As for `O=Cc1ccc(C(=O)O)cc1`, the T/C under setting [8] is 98 % of control, the T/C under setting [9] was 96 % of control and the T/C under setting [10] was 95 % of control.
Consider `c1ccc(N=C(Nc2ccccc2)c2ccccc2)cc1`, for which the T/C reads like this: (dose: 100.0 mg/kg/injection, schedule: Q04DX002 (ip), vehicle: Klucel (hydroxypropylcellulose) (HPC)) 103 % of control; under setting [8], 94 % of control; (dose: 200.0 mg/kg/injection, schedule: Q04DX002 (ip), vehicle: Klucel (hydroxypropylcellulose) (HPC)) 111 % of control; under setting [9], 91 % of control; under setting [10], 92 % of control.
For `CC[P+](CC)(CC)CCCCI`, the T/C runs as follows: (dose: 12.0 mg/kg/injection, schedule: Q01DX009 (ip), vehicle: saline) 94 % of control; under setting [1], 101 % of control; (dose: 25.0 mg/kg/injection, schedule: Q04DX003 (ip), vehicle: saline) 105 % of control; under setting [17], 101 % of control and 91 % of control; (dose: 50.0 mg/kg/injection, schedule: Q04DX003 (ip), vehicle: saline) 114 % of control.
For `O=C([O-])C(=O)[O-].[Cu+2].[OH2+]CC[N-]CC[OH2+].[OH2+]CC[N-]CC[OH2+]`, the T/C runs as follows: under setting [6], 97 % of control; under setting [7], 92 % of control; (dose: 20.0 mg/kg/injection, schedule: Q01DX001 (ip), vehicle: saline) 103 % of control.
With `Cc1ccc2c([nH]1)c(C)cc1nc3ccccc3c12`, the T/C by setting is: (dose: 50.0 mg/kg/injection, schedule: Q01DX001 (ip), vehicle: carboxymethylcellulose (CMC)) 103 % of control; under setting [19], 95 % of control; under setting [20], 101 % of control; under setting [12], 95 % of control; under setting [21], 110 % of control; under setting [13], 104 % of control. Besides, the T/C under setting [22] was 101 % of control.
